Assay results taken from patent US11919918B2, “P2X3 andor P2X2/3 receptor antagonist, pharmaceutical composition comprising same, and use thereof” (BEIJING TIDE PHARMACEUTICAL CO., LTD., priority 2017, dated 2024).

How the values were obtained:
human P2X3 receptor = human P2X3 receptor (Homo sapiens (Human), UniProt P56373); assay: Inhibitory activity on human P2X3 receptor (calcium 6 dye FLIPR assay, agonist α,β-MeATP); assay type: cell-based; conditions: HEK293-P2X3 stably expressing cell line, FLIPR Tetra
Sequence of human P2X3 receptor (P56373 whole entry): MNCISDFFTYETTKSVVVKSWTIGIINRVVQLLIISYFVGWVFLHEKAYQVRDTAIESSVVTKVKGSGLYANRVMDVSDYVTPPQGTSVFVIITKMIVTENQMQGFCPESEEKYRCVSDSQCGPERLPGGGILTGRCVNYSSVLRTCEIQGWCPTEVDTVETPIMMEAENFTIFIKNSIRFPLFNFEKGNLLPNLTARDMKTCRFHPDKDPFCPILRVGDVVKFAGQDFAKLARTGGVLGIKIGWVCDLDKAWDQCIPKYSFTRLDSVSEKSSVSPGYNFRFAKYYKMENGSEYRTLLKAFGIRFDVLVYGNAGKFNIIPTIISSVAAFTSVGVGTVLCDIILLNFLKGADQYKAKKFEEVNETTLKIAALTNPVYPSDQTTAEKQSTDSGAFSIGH
Description: (§1) Biological Assay: Determination of the Inhibitory Activity of the Compounds on Human P2X3 and P2X2/3 Receptors
(§2) Cells were seeded into a poly-D-lysine-coated 384-well cell culture plate (Corning) at a density of 11,000 cells/well/25 μL of cell inoculation medium, and were cultured in a cell incubator overnight. On the day of the test, the calcium 6 dye was diluted to a 2× concentration with a assay buffer, 25 μL of the 2× calcium 6 dye was added to the 384-well cell culture plate, which was incubated at 37° C. for 2 hours, and then placed at room temperature for further use. The test compound and the agonist, α,β-MeATP were diluted to a 7× concentration with the assay buffer, 10 μL of the 7× test compound was added to the 384-well cell culture plate, which was incubated at room temperature for 15 minutes, and 10 μL of the 7× α,β-MeATP was transferred into the 384-well cell culture plate. The data were measured and analyzed using FLIPR Tetra, and the half inhibitory concentration (IC50) of the test compound on P2X3 and P2X2/3 receptors was calculated with the GraphPad Prism four-parameter equation.
(§3) Cell lines: human embryonic kidney cells HEK293-P2X3 and HEK293-P2X2/3 stably expressing cell lines;
(§4) Complete cell culture medium: DMEM High Glucose (Life Technology), which contained 10% fetal bovine serum, 4 mM GlutaMAX, 1% penicillin-streptomycin, and 350 μg/mL G418;
(§5) Cell inoculation medium: DMEM High Glucose (Life Technology), which contained 2% fetal bovine serum, and 4 mM GlutaMAX;
(§6) Cell culture conditions: 37° C., 5% CO2;
(§7) Assay buffer: HBSS (containing calcium and magnesium ions), which contained 20 mM HEPES;
(§8) Detection equipment: FLIPR Tetra (Molecular Devices);

human P2X2/3 receptor = human P2X2/3 receptor (Homo sapiens (Human), UniProt P56373+Q9UBL9); assay: Inhibitory activity on human P2X2/3 receptor (calcium 6 dye FLIPR assay, agonist α,β-MeATP); assay type: cell-based; conditions: HEK293-P2X2/3 stably expressing cell line, FLIPR Tetra
Sequence of human P2X2/3 receptor (Q9UBL9 whole entry): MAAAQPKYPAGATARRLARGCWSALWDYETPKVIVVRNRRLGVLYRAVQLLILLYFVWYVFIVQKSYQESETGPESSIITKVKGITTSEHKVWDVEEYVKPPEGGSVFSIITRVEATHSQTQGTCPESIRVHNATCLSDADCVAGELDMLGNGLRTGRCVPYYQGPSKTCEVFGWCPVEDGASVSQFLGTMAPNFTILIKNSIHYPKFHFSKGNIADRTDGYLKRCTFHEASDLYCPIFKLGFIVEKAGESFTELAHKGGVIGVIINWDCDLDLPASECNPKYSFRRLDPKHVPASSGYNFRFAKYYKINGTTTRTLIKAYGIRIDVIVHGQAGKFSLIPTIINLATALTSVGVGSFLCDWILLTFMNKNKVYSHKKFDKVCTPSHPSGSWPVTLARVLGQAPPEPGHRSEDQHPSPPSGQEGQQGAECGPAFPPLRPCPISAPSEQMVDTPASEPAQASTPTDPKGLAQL
Sequence of human P2X2/3 receptor (P56373 whole entry): as the sequence (P56373 whole entry) above
Description: as §1, §2, §3, §4, §5, §6, §7, §8

Compound: CSc1cc(Oc2cnc(N)nc2NCCN(C)C)c(C(C)C)cn1 [Compound C72, N^4-(2-(dimethylamino)ethyl)-5-((5-isopropyl-2-(methylthio)pyridin-4-yl)oxy)pyrimidine-2,4-diamine]
- IC50 (human P2X3 receptor): 127 nM
- IC50 (human P2X2/3 receptor): 89 nM

Compound: CC(C)c1cnc(Br)cc1Sc1cnc(N)nc1N [Compound C85, 5-((2-bromo-5-isopropylpyridin-4-yl)thio)pyrimidine-2,4-diamine]
- IC50 (human P2X3 receptor): 78 nM
- IC50 (human P2X2/3 receptor): 205 nM

Compound: C#Cc1cc(Sc2cnc(N)nc2N)c(C(C)C)cn1 [Compound C88, 5-((2-ethynyl-5-isopropyl-pyrdin-4-yl)thio) pyrimidine-2,4-diamine]
- IC50 (human P2X3 receptor): 133 nM
- IC50 (human P2X2/3 receptor): 122 nM

Compound: CSc1cc(Sc2cnc(N)nc2N)c(C(C)C)cn1 [Compound C91, 5-((5-isopropyl2-(methylthio)pyridin-4-yl)thio) pyrimidine-2,4-diamine]
- IC50 (human P2X3 receptor): 227 nM
- IC50 (human P2X2/3 receptor): 271 nM

Compound: Cc1cc(Sc2cnc(N)nc2N)c(C(C)C)cn1 [Compound C92, 5-((5-isopropyl-2-methylpyridin-4-yl)thio) pyrimidine-2,4-diamine]
- IC50 (human P2X3 receptor): 109 nM
- IC50 (human P2X2/3 receptor): 222 nM

Compound: C=Cc1cc(Sc2cnc(N)nc2N)c(C(C)C)cn1 [Compound C95, 5-((5-isopropyl-2-vinylpyridine-4-yl)thio)pyrimidine-2,4-diamine]
- IC50 (human P2X3 receptor): 138 nM
- IC50 (human P2X2/3 receptor): 163 nM

Compound: CC(C)c1cnc(Br)cc1Oc1cnc(NC(CO)CO)nc1N [Compound C111, 2-((4-amino-5-((2-bromo-5-isopropyl-pyridin-4-yl)oxy)pyrimidin-2-yl)amino) propane-1,3-diol]
- IC50 (human P2X3 receptor): 104 nM
- IC50 (human P2X2/3 receptor): 129 nM

Compound: CCSc1cc(Oc2cnc(N)nc2N)c(C(C)C)cn1 [Compound C117, 5-((2-(ethylthio)-5-isopropylpyridin-4-yl)oxy)pyrimidine-2,4-diamine]
- IC50 (human P2X3 receptor): 151 nM
- IC50 (human P2X2/3 receptor): 487 nM

Compound: CCNc1cc(Oc2cnc(N)nc2N)c(C(C)C)cn1 [Compound C118, 5-((2-(ethylamino)-5-isopropylpyridin-4-yl)oxy) pyrimidine-2,4-diamine]
- IC50 (human P2X3 receptor): 142 nM
- IC50 (human P2X2/3 receptor): 366 nM

Compound: CC(C)c1cnc(NC2CC2)cc1Oc1cnc(N)nc1N [Compound C119, 5-((2-(cyclopropylamino)-5-isopropylpyridin-4-yl)oxy)pyrimidine-2,4-diamine]
- IC50 (human P2X3 receptor): 540 nM
- IC50 (human P2X2/3 receptor): 505 nM

Compound: CCc1cc(Sc2cnc(N)nc2N)c(C(C)C)cn1 [Compound C127, 5-((2-ethyl-5-isopropylpyridin-4-yl)thio)pyrimidine-2,4-diamine]
- IC50 (human P2X3 receptor): 147 nM
- IC50 (human P2X2/3 receptor): 234 nM

Compound: CC(C)c1cnc([Si](C)(C)C)cc1Oc1cnc(N)nc1N [Compound C133, 5-((5-isopropyl-2-(trimethylsilyl)pyridin-4-yl)oxy)pyrimidine-2,4-diamine]
- IC50 (human P2X3 receptor): 1440 nM
- IC50 (human P2X2/3 receptor): 770 nM

Compound: CC#Cc1cc(Oc2cnc(N)nc2N)c(C(C)C)cn1 [Compound C134, 5-((5-isopropyl-2-(prop-1-yn-1-yl)pyridin-4-yl)oxy) pyrimidine-2,4-diamine]
- IC50 (human P2X3 receptor): 391 nM
- IC50 (human P2X2/3 receptor): 685 nM

Compound: CC(C)c1cnc(C#Cc2ccccc2)cc1Oc1cnc(N)nc1N [Compound C135, 5-((5-isopropyl-2-(phenyl-ethynyl)pyridin-4-yl)oxy) pyrimidine-2,4-diamine]
- IC50 (human P2X3 receptor): 303 nM
- IC50 (human P2X2/3 receptor): 488 nM

Compound: COc1ccc(C#Cc2cc(Oc3cnc(N)nc3N)c(C(C)C)cn2)cc1 [Compound C136, 5-((5-isopropyl-2-((4-methoxyphenyl)ethynyl)pyridin-4-yl)oxy) pyrimidine-2,4-diamine]
- IC50 (human P2X3 receptor): 270 nM
- IC50 (human P2X2/3 receptor): 416 nM

Compound: CC(C)c1cnc(C#Cc2ccc(C#N)cc2)cc1Oc1cnc(N)nc1N [Compound C137]
- IC50 (human P2X3 receptor): 503 nM
- IC50 (human P2X2/3 receptor): 567 nM

Compound: CC(C)c1cnc(C#CC2CC2)cc1Oc1cnc(N)nc1N [Compound C142, 5-((2-(cyclo-propylethynyl)-5-isopropylpyrdin-4-yl)oxy) pyrimidine-2,4-diamine]
- IC50 (human P2X3 receptor): 302 nM
- IC50 (human P2X2/3 receptor): 549 nM

Compound: COc1cc(OC)c(C#Cc2cc(Oc3cnc(N)nc3N)c(C(C)C)cn2)c(OC)c1 [Compound C145, 5-((5-isopropyl-2-((2,4,6-trimethoxyphenyl)ethynyl)pyridin-4-yl)oxy)pyrimidine-2,4-diamine]
- IC50 (human P2X3 receptor): 809 nM
- IC50 (human P2X2/3 receptor): 623 nM

Compound: CC(C)c1cnc(C#Cc2ccc(N(C)C)cc2)cc1Oc1cnc(N)nc1N [Compound C148, 5-((2-((4-(dimethylamino)phenyl)ethynyl)-5-isopropylpyridin-4-yl)oxy) pyrimidine-2,4-diamine]
- IC50 (human P2X3 receptor): 215 nM
- IC50 (human P2X2/3 receptor): 113 nM

Compound: CC(C)c1cnc(C#Cc2cccc3cccnc23)cc1Oc1cnc(N)nc1N [Compound C149, 5-((5-isopropyl-2-(quinolin-8-ylethynyl)pyridin-4-yl)oxy)pyrimidine-2,4-diamine]
- IC50 (human P2X3 receptor): 130 nM
- IC50 (human P2X2/3 receptor): 266 nM

Compound: CC(C)c1cnc(C#Cc2ccccn2)cc1Oc1cnc(N)nc1N [Compound C150, 5-((5-isopropyl-2-(pyridin-2-ylethynyl)pyridin-4-yl)oxy)pyrimidine-2,4-diamine]
- IC50 (human P2X3 receptor): 211 nM
- IC50 (human P2X2/3 receptor): 232 nM

Compound: CC(C)c1cnc(C#Cc2ccncc2)cc1Oc1cnc(N)nc1N [Compound C151, 5-((5-isopropyl-2-(pyridin-4-ylethynyl)pyridin-4-yl)oxy)pyrimidine-2,4-diamine]
- IC50 (human P2X3 receptor): 590 nM
- IC50 (human P2X2/3 receptor): 961 nM

Compound: CC(C)c1cnc(NCC(F)(F)F)cc1Oc1cnc(N)nc1N [Compound C152]
- IC50 (human P2X3 receptor): 211 nM
- IC50 (human P2X2/3 receptor): 375 nM

Compound: CC(C)c1cnc(Br)cc1Oc1cnc(N)nc1NC(CO)CO [Compound C153, 2-((2-amino-5-((2-bromo-5-isopropylpyridin-4-yl)oxy)pyrimidin-4-yl)amino) propane-1,3-diol]
- IC50 (human P2X3 receptor): 83 nM
- IC50 (human P2X2/3 receptor): 96 nM

Compound: CCN(C)CCNc1nc(N)ncc1Oc1cc(Br)ncc1C(C)C [Compound C154, 5-((2-bromo-5-isopropylpyridin-4-yl)oxy)-N^4-(2-(ethyl(methyl)amino)ethyl)pyrimidine-2,4-diamine]
- IC50 (human P2X3 receptor): 72 nM
- IC50 (human P2X2/3 receptor): 46 nM

Compound: CC(C)c1cnc(CN)cc1Oc1cnc(N)nc1N [Compound C157, 5-((2-(aminomethyl)-5-isopropylpyridin-4-yl)oxy)pyrimidine-2,4-diamine]
- IC50 (human P2X3 receptor): 736 nM
- IC50 (human P2X2/3 receptor): 978 nM

Compound: C=Cc1cnc(OC)cc1Oc1cnc(N)nc1N [Compound C162, 5-((2-methoxy-5-vinylpyridin-4-yl)oxy) pyrimidine-2,4-diamine]
- IC50 (human P2X3 receptor): 296 nM
- IC50 (human P2X2/3 receptor): 429 nM

Compound: C=C(C)c1cnc(OC)cc1Oc1cnc(N)nc1N [Compound C164, 5-((2-methoxy-5-(prop-1-en-2-yl)pyridin-4-yl)oxy) pyrimidine-2,4-diamine]
- IC50 (human P2X3 receptor): 46 nM
- IC50 (human P2X2/3 receptor): 71 nM

Compound: CCc1cnc(OC)cc1Oc1cnc(N)nc1N [Compound C165, 5-((5-ethyl-2-methoxy-pyridin-4-yl)oxy) pyrimidine-2,4-diamine]
- IC50 (human P2X3 receptor): 163 nM
- IC50 (human P2X2/3 receptor): 338 nM

Compound: CNc1nc(N)ncc1Oc1cc(Br)ncc1C(C)C [Compound C172, 5-((2-bromo-5-isopropylpyridin-4-yl)oxy)-N^4-methyl-pyrimidine-2,4-diamine]
- IC50 (human P2X3 receptor): 116 nM
- IC50 (human P2X2/3 receptor): 209 nM

Compound: CCNc1nc(N)ncc1Oc1cc(Br)ncc1C(C)C [Compound C173, 5-((2-bromo-5-isopropylpyridin-4-yl)oxy)-N^4-ethylpyrimidine-2,4-diamine]
- IC50 (human P2X3 receptor): 188 nM
- IC50 (human P2X2/3 receptor): 259 nM

Compound: CC(C)Nc1nc(N)ncc1Oc1cc(Br)ncc1C(C)C [Compound C174, 5-((2-bromo-5-isopropylpyridin-4-yl)oxy)-N^4-isopropyl-pyrimidine-2,4-diamine]
- IC50 (human P2X3 receptor): 100 nM
- IC50 (human P2X2/3 receptor): 145 nM

Compound: CC(C)c1cnc(Br)cc1Oc1cnc(N)nc1NCCO [Compound C175, 2-((2-amino-5-((2-bromo-5-isopropylpyridin-4-yl)oxy)pyrimidin-4-yl)amino)ethanol.]
- IC50 (human P2X3 receptor): 108 nM
- IC50 (human P2X2/3 receptor): 141 nM

Compound: COc1cc(Oc2cnc(N)nc2N)c(C)cn1 [Compound C176, 5-((2-methoxy-5-methylpyridin-4-yl)oxy) pyrimidine-2,4-diamine]
- IC50 (human P2X3 receptor): 611 nM
- IC50 (human P2X2/3 receptor): 984 nM

Compound: CC(C)c1cnc(Br)cc1Oc1cnc(N)nc1NC1CC1 [Compound C179, 5-((2-bromo-5-isopropylpyridin-4-yl)oxy)-N^4-cyclopropyl-pyrimidine-2,4-diamine]
- IC50 (human P2X3 receptor): 51 nM
- IC50 (human P2X2/3 receptor): 43 nM

Compound: CC(C)c1cnc(Br)cc1Oc1cnc(N)nc1NC1CCCCC1 [Compound C180, 5-((2-bromo-5-isopropylpyridin-4-yl)oxy)-N^4-cyclohexyl-pyrimidine-2,4-diamine]
- IC50 (human P2X3 receptor): 207 nM
- IC50 (human P2X2/3 receptor): 220 nM

Compound: CC(C)CNc1nc(N)ncc1Oc1cc(Br)ncc1C(C)C [Compound C181, 5-((2-bromo-5-isopropylpyridin-4-yl)oxy)-N^4-isobutyl-pyrimidine-2,4-diamine]
- IC50 (human P2X3 receptor): 84 nM
- IC50 (human P2X2/3 receptor): 78 nM
